In patent US20250304623A1, “PEPTIDES FOR INTRACELLULAR DELIVERY” (UNIVERSIDADE DE SANTIAGO DE COMPOSTELA, priority 2022, published 2025):
*: point of attachment. NHNH2 = NN*

What was measured:
Type in all cases: cell-based
[1] = tested on: A549 cells expressing EGFP; experiment: EGFP-targeting siRNA delivery (GFP silencing vs siMOCK), A549; conditions: for siRNA % fluorescence reduction vs siMOCK: A549, amphiphile 5 μM, hydrophobic tail; for percentage of GFP-silencing relative to siMOCK: A549 cells
[2] = tested on: ARPE19 cells expressing EGFP; experiment: Cas9-RNP delivery against EGFP (gene editing, plate reader), ARPE19
Procedure, shortened: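 EGFP-expressing cells, generated by stable transfection with EGFP pDNA and G-418 selection, were plated in 96-well plates at 50,000 cell/mL (100 μL/w) in DMEM+10% FBS+1% Gln-Abt. Cas9-RNP targeting EGFP was complexed with amphiphile for 30 min, applied for 4 h at 50 nM RNP, and EGFP fluorescence was read on a plate reader after 72 h.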

[3] = tested on: Hela cells expressing EGFP; experiment: Cas9-RNP delivery against EGFP (gene editing, plate reader), HeLa; conditions: for % GFP silencing due to gene editing (Cas9-RNP): HeLa
Procedure, shortened: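 HeLa cells stably expressing EGFP were plated in 96-well plates at 50,000 cell/mL (100 μL/w) in DMEM+10% FBS+1% Gln-Abt one day ahead. Cas9-RNP targeting EGFP was premixed with amphiphile for 30 min at room temperature, applied for 4 h at 50 nM RNP, then medium was replaced; EGFP fluorescence was read on a plate reader after 72 h, in triplicate.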

[4] = Petroselinyl, 15 μM, Hela cells

| Substance | percentage of GFP-silencing relative to siMOCK ([1]; Dodecanal, 5 μM) | percentage of GFP-silencing relative to siMOCK ([1]; Dodecanal, 10 μM) | percentage of GFP-silencing relative to siMOCK ([1]; Myristoleyl, 5 μM) | percentage of GFP-silencing relative to siMOCK ([1]; Myristoleyl, 10 μM) | percentage of GFP-silencing relative to siMOCK ([1]; Myristoleyl, 15 μM) | percentage of GFP-silencing relative to siMOCK ([1]; Oleyl, 10 μM) | percentage of GFP-silencing relative to siMOCK ([1]; Oleyl, 15 μM) | percentage of gene editing, GFP fluorescence intensity decrease (% of reduction) ([2]; Myristoleyl, 10 μM) | percentage of gene editing, GFP fluorescence intensity decrease (% of reduction) ([2]; Oleyl, 5 μM) | percentage of gene editing, GFP fluorescence intensity decrease (% of reduction) ([2]; Petroselinyl, 15 μM) | percentage of gene editing, GFP fluorescence intensity decrease (% of reduction) ([3]; Myristoleyl, 5 μM, HeLa cells) | percentage of gene editing, GFP fluorescence intensity decrease (% of reduction) ([3]; Palmitoleyl, 5 μM, HeLa cells) | percentage of gene editing, GFP fluorescence intensity decrease (% of reduction) ([3]; Palmitoleyl, 10 μM, HeLa cells) | percentage of gene editing, GFP fluorescence intensity decrease (% of reduction) ([3]; Palmitoleyl, 15 μM, Hela cells) | percentage of gene editing, GFP fluorescence intensity decrease (% of reduction) [3, 4] | percentage of gene editing, GFP fluorescence intensity decrease (% of reduction) ([2]; Oleyl, 10 μM) | percentage of gene editing, GFP fluorescence intensity decrease (% of reduction) ([3]; Oleyl, 10 μM, HeLa cells) | also measured |
| --- | --- | --- | --- | --- | --- | --- | --- | --- | --- | --- | --- | --- | --- | --- | --- | --- | --- | --- |
| Ac-RRLK*RLK*RRLK*RL-NH2 [Peptide 13.3] | 59% | 54% | 57% | 25% | 28% | 14% | 4% | 32% | 20% | −11% | 29% | 18% | 68% | 80% | 85% | – | – | siRNA % fluorescence reduction vs siMOCK ([1]; dodecanal hydrophobic tail): 58%; siRNA % fluorescence reduction vs siMOCK ([1]; myristoleyl hydrophobic tail): 57%; siRNA % fluorescence reduction vs siMOCK ([1]; palmitoleyl hydrophobic tail): 60%; percentage of GFP-silencing relative to siMOCK ([1]; Dodecanal, 15 μM): 46%; percentage of GFP-silencing relative to siMOCK ([1]; Palmitoleyl, 5 μM): 60%; percentage of GFP-silencing relative to siMOCK ([1]; Palmitoleyl, 10 μM): 37%; percentage of GFP-silencing relative to siMOCK ([1]; Palmitoleyl, 15 μM): 29%; percentage of GFP-silencing relative to siMOCK ([1]; Petroselinyl, 5 μM): 31%; percentage of GFP-silencing relative to siMOCK ([1]; Petroselinyl, 10 μM): 53%; percentage of GFP-silencing relative to siMOCK ([1]; Petroselinyl, 15 μM): 59%; percentage of gene editing, GFP fluorescence intensity decrease (% of reduction) ([2]; Dodecanal, 10 μM): 13%; percentage of gene editing, GFP fluorescence intensity decrease (% of reduction) ([2]; Dodecanal, 15 μM): 18%; percentage of gene editing, GFP fluorescence intensity decrease (% of reduction) ([2]; Myristoleyl, 15 μM): 38%; % GFP silencing due to gene editing (Cas9-RNP) ([3]; 5 μM, Ole tail): 76%; % GFP silencing due to gene editing (Cas9-RNP) ([3]; 5 μM, Pal tail): 68%; % GFP silencing due to gene editing (Cas9-RNP) ([3]; 5 μM, Pet tail): 63%; percentage of gene editing, GFP fluorescence intensity decrease (% of reduction) ([3]; Myristoleyl, 15 μM, Hela cells): 86% |
| Ac-RRLK*RLLRRLK*RL-NH2 (Ac-RRLK(NHNH2)RLLRRLK(NHNH2)RL-NH2; not fully specified; printed as Ac-RRLK*RLLRRLK*RL-NH2; also: K*4,K*11: native or modified lysine (ε-amide to a linker)) [Peptide 13.2] | – | – | – | – | – | −2% | −21% | – | 13% | – | – | – | – | – | – | −7% | 62% | percentage of GFP-silencing relative to siMOCK ([1]; Oleyl, 5 μM): 19%; percentage of gene editing, GFP fluorescence intensity decrease (% of reduction) ([3]; Oleyl, 5 μM, HeLa cells): 21% |
| Ac-RRLK*RLLRRLK*RLK*RRL-NH2 (Ac-RRLK(NHNH2)RLLRRLK(NHNH2)RLK(NHNH2)RRL-NH2; not fully specified; printed as Ac-RRLK*RLLRRLK*RLK*RRL-NH2; also: K*4,K*11,K*14: native or modified lysine (ε-amide to a linker)) [Peptide 17.3] | 25% | 4% | 24% | 8% | 6% | – | – | 44% | – | 27% | 57% | 35% | 90% | 88% | 87% | 45% | 90% | percentage of gene editing, GFP fluorescence intensity decrease (% of reduction) ([2]; Oleyl, 15 μM): −9%; percentage of gene editing, GFP fluorescence intensity decrease (% of reduction) ([2]; Palmitoleyl, 5 μM): 12%; percentage of gene editing, GFP fluorescence intensity decrease (% of reduction) ([2]; Palmitoleyl, 10 μM): 60%; percentage of gene editing, GFP fluorescence intensity decrease (% of reduction) ([2]; Palmitoleyl, 15 μM): 31%; percentage of gene editing, GFP fluorescence intensity decrease (% of reduction) ([2]; Petroselinyl, 10 μM): 26%; percentage of gene editing, GFP fluorescence intensity decrease (% of reduction) ([3]; Dodecanal, 5 μM, Hela cells): 81%; percentage of gene editing, GFP fluorescence intensity decrease (% of reduction) ([3]; Dodecanal, 10 μM, HeLa cells): 87%; percentage of gene editing, GFP fluorescence intensity decrease (% of reduction) ([3]; Dodecanal, 15 μM, Hela cells): 78%; percentage of gene editing, GFP fluorescence intensity decrease (% of reduction) ([3]; Oleyl, 15 μM, Hela cells): 82%; percentage of gene editing, GFP fluorescence intensity decrease (% of reduction) ([3]; Petroselinyl, 5 μM, HeLa cells): 48% |
